Source: patent US12318399B2 (priority 2022, dated 2025)
Where two headings read alike, the source gives them in different places.

Legend:
[1] = tested on: endometrial cancer organoids; assay: Patient-derived endometrial cancer organoid cell viability (CellTiter-Glo); assay type: cell-based, human
Experimental: (§1) Development of patient derived organoids: The patient derived organoids were created as follows: the patient's tissue sample was collected after surgery and bathed in Hank's Balanced Salt Solution (HBSS) (Hyclone, SH30031.02) with 1% Pencillin/Streptomycin (P/S) (Life Technologies, 15070-063) on ice. Then the sample was washed three times with Dulbecco's phosphate-buffered saline (DPBS) and 1% P/S on a shaker (70 rpm) for 15 minutes each. The tissue was then transferred into a presterilized cell-culture hood to mince it finely with a sterile blade. All minced parts were then digested in an enzyme named Accumax (Innovative Cell Technologies Inc., AM105-500) for 2.5 hours at room temperature. After 2.5-hour incubation, the whole digested tissue mince was transferred in another enzyme, TrypLE express, (Gibco, 12604-021) for another 45 minutes in a 37° C. water bath. During this time the solution was continuously agitated in every 5 minutes interval. After 45 minutes of incubation, the solutions were passed through 70 μm filter on a 50 mL falcon tube. The filter was removed, and the flowthrough with the cells was collected in 5% FBS AD+++ medium (comprising 1% TS, 2% B27, 1% N2, 25% WRN, hegf 50 ng/ml, hfgf 10-100 ng/ml, Nicotinamide 1 mM, N-acetyl cysteine 1.25 mM, Primocin 0.2%, Estrogen 2 nm, A8301 0.5 μM, and Y27632). This cell suspension was centrifuged at 1000 rpm for 5 minutes at room temperature to get the cell pellet for counting. Upon checking under hemocytometer cell number was calculated and processed for organoid culture. After checking under a microscope if we found RBC contamination in the final cell suspension, then we used Red Blood Cell Lysis Buffer (Roche Diagnostics, 11814389001) to get rid of the excess RBC. Human patient cells from endometrial cancer were grown and maintained in a humidified chamber at 37° C. with 5% CO2.
(§2) To culture patient-derived organoids, 2-3×10^3 cells were plated in a prewarmed (37° C.) 96-well plate in […] of Matrigel (5% FBS AD+++ medium) per well. Individual patient cell organoid was cultured separately in different plates. Individual patient cells were handled separately to reduce the chance of cross-contamination. After mixing cells with Matrigel, […] droplets were placed in wells and put in a 37° C. incubator with 5% CO2 for 30 minutes. Upon solidification of the Matrigel droplet with cells inside, the plate was placed inside a sterile hood and immersed the Matrigel droplet in 200 μL of organoid growth media. Cells were allowed to grow into mature organoids for 14 days. […] All treatments were done in triplicate, including vehicle-only controls (Dimethyl sulfoxide in culture medium at the highest concentration used for drug treatments).
(§3) Note: IC50 is the 50% inhibitory concentration which is conventionally used to determine drug potency with cell-based cytotoxicity tests. Similarly, all of the antioxidants were tested under the same protocol.
To assess the cell viability in organoids after treatments, CellTiter-Glo® Luminescent Assay (Promega #G7572) was used. In brief, on day 14 of organoid culture, the matrigel droplet in each well with organoid inside was immersed in 100 μL of fresh growth media and 100 μL of CellTiter-Glo® reagent following the manufacturer's guideline. Blank wells containing only media and CellTiter-Glo® reagent (no cells) were also included in each plate. Then the plates were put on a shaker at 110 RPM at room temperature for […] minutes to induce cell lysis, followed by 25 minutes at room temperature to stabilize the luminescent signal. Each step after adding the CellTiter-Glo® reagent was performed in the dark. Luminescence was measured on a FLUOstar OPTIMA plate reader (BMG Lab technologies, Offenburg, Germany). Analysis was performed by normalizing treatment values to the vehicle control and plotting them as a percentage of the vehicle control.

[2] = tested on: patient derived endometrial cancer cells; assay: Patient-derived xenograft (PDX) mouse model, tumor volume; assay type: in vivo; details: monotherapy 30 mg/kg intraperitoneal, by day 14 and at day 21
Experimental: Human patient cells from endometrial cancer were injected subcutaneously into female NOD/SCID gamma mice after resuspending in 100 μL solution. […] Tumor size measured before treatment, followed by twice a week measurement. All treatment group mice were kept alive for up to 10 weeks after drug injection or until the tumor volume grows bigger than 2,500 mm^3.
Tumor size was measured along with body weight at the time of tissue collection. All tumor tissues were removed carefully from the euthanized mouse body. Tumor tissue samples were kept for histology, proteomics, genomics, and other downstream processing. All downstream processing was completed following NCI Patient-Derived Models Repository SOPs. Tumor volume graph will be plotted using GraphPad Prism 9.
The mouse studies utilized intraperitoneal dosing of various formulations of cannabis extracts comprising a known quantity of CBD.

[3] = tested on: ovarian cancer organoids; assay: Patient-derived ovarian cancer organoid cell viability; assay type: cell-based, human; details: for cell viability: chemo sensitive and chemo resistant organoids, FIGS. 11A-11D
Experimental: as §1
For the Ascites samples, we centrifuged the ascites fluid at 1000 rpm for 10 minutes at room temperature to get the cell suspension. The cell suspension was then treated with Red Blood Cell Lysis Buffer (Roche Diagnostics, 11814389001) to remove the RBC from the final cell suspension. Once samples were created, they were ready for testing, which included treating the organoids with cannabis extract. Additional cells were cultured in the same manner as above.
as §2, §3
To assess the cell viability in organoids after treatments, CellTiter-Glo® Luminescent Assay (Promega #G7572) was used. In brief, on day 14 of organoid culture, the matrigel droplet in each well with organoid inside was immersed in 100 μL of fresh growth media and 100 μL of CellTiter-Glo® reagent following the manufacturer's guideline. Blank wells containing only media and CellTiter-Glo® reagent (no cells) were also included in each plate. […]

[4] = tested on: chemoresistant EC, which had metastasized; assay: Testing within human patients; assay type: in vivo
[5] = cited from earlier work

SMILES | response of patient derived organoids ([1]; 7 or 10 μg/mL, FIGS. 4B and 4C) | eradication ([1]; IC50 of cannabis extract combined with the higher doses of carboplatin) [%] | tumor volumes [2] | cell viability [3] | efficacy at killing the organoids compared with native pH ([3]; pH 8) | efficacy in human patients [4] | increase of Cmax ([5]; coadministration with high fat food) | Tmax ([5]; delivery via the nasal mucosa) | maximum plasma concentration (time) ([5]; oral-mucosal or sublingual delivery) [h] | maximum plasma concentration (time) ([5]; orally delivered) [h] | reduction in organoid formation in all patients ([1]; dosing up to 50 μg/mL) [%]
C=C(C)[C@@H]1CCC(C)=C[C@H]1c1c(O)cc(CCCCC)cc1O [CBD isolate, cannabidiol] | virtually all patients respond | ~100 | decreased | dramatically reduce cell viability | virtually no change |  |  |  |  |  | 
C=C(C)[C@@H]1CCC(C)=C[C@H]1c1c(O)cc(CCCCC)cc1O [CBD, cannabidiol] |  |  |  |  |  | effective in reducing chemoresistant EC | up to 5 fold | approximately 10 minutes | 1.6 | 2.5 to 5 | 
C=C(C)[C@@H]1CCC(C)=C[C@H]1c1c(O)cc(CCCCC)c(C(=O)O)c1O [CBDA, cannabidiolic acid] |  |  | decreased | dramatically reduce cell viability |  |  |  |  |  |  | ~100
